# Reference: US11426367B2, “Methods of treating substance abuse” (Perception Neuroscience, Inc., priority 2018, dated 2022)
# Experiments:
# Format in all cases: in vivo
# [1] = tested on: social defeat stress mice; experiment: Locomotion test (LMT), social defeat stress model; settings: 10 mg/kg i.p., 2 days after injection
# Protocol: A social defeat stress model of depression was prepared by bringing C57/B6 male mice into contact with ICR male mice (large aggressive mice) for 10 consecutive days to apply a stress called a “social defeat stress” in accordance with the previous report (Non Patent Literature 19). […] Specifically, an increase in immobility time was found in each of a tail suspension test (TST) and a forced swimming test (FST).
# The preparation of the animal model of depression and the administration of the agent were specifically performed as described below (FIG. 3A). Male C57/B6 mice (7-week-old, Japan SLC, Inc., Hamamatsu, Japan) and ICR mice (9-week-old, Japan SLC, Inc., Hamamatsu, Japan) were used. […]
# The antidepressant effects of the agent were investigated by behavioral tests such as the TST, the PST, the LMT, and a 1% sucrose preference test (SPT) (FIG. 3A). […] The immobility time of each mouse was recorded for 10 minutes. […] The immobility time was calculated as a value obtained by subtracting active time from total time, using the analysis software of the apparatus. Cumulative immobility time was recorded over 6 minutes during a test period. […] The locomotor activity of the mice was counted with SCANET MV-40, and the cumulative exercise of the mice was recorded for 60 minutes. […] A spine density was quantitatively evaluated by observation with a KEYENCE microscope (BZ-9000, Osaka, Japan).
# [2] = tested on: DEX-treated mice; experiment: Locomotion test (LMT), neonatal dexamethasone exposure model; settings: juvenile DEX-treated mice, 10 mg/kg i.p., day after injection
# Protocol: A new animal model of depression was prepared by exposing mice neonatally to dexamethasone (hereinafter abbreviated as DEX). […] The mouse model was prepared and reported only recently by the inventors of the present application and their collaborators (Non Patent Literature 18). […] Further, alterations were found in levels of amino acids (glutamate, glutamine, glycine, D-serine, and L-serine) in mouse brains after the neonatal DEX exposure (Non Patent Literature 18). Those amino acids are known to be associated with NMDA receptor mediated neurotransmission. Thus, it is conceivable that alterations in glutamatergic transmission via the NMDA receptor after the neonatal DEX exposure may be involved in the depression-like behavior in the juvenile mice and the adult mice (Non Patent Literature 18). […]
# The antidepressant effects of the agent were investigated for juvenile mice by behavioral tests such as the TST, the PST, the LMT, and a 1% sucrose preference test (SPT) (FIG. 2A). […] The immobility time of each mouse was recorded for 10 minutes. […] The immobility time was calculated as a value obtained by subtracting active time from total time, using the analysis software of the apparatus. Cumulative immobility time was recorded over 6 minutes during a test period. […] The locomotor activity of the mice was counted with SCANET MV-40, and the cumulative exercise of the mice was recorded for 60 minutes. […]
# [3] = tested on: Control C57/B6 mice; experiment: Locomotion-enhancing effect in control mice
# Protocol: An effect of ketamine on the locomotion of mice was tested using SCANET MV-40 ([…] Co., Ltd., Toyama, Japan). Specifically, the locomotion was measured for a total of 180 minutes, i.e., 60 minutes before injection to 120 minutes after injection, and calculated as a locomotion per 10 minutes. The statistical analysis of the results of the locomotion was performed by repeated one-way analysis of variance (repeated one-way ANOV A), followed by a least significant difference test (LSD test).
SMILES,locomotion in the LMT [1],locomotion in the LMT [2],"locomotion after injection ([3]; control mice, 5, 10 or 20 mg/kg)","time after injection at which locomotion returned to a normal value ([3]; control mice, 10 mg/kg or 20 mg/kg) [min]","locomotion after injection ([3]; control mice, 10 mg/kg or 20 mg/kg, 10 minutes and 20 minutes after injection, vs saline)"
CN[C@@]1(c2ccccc2Cl)CCCCC1=O.Cl [R(−)-ketamine],no difference in locomotion,no difference in locomotion,did not affect the locomotion,–,–
CN[C@]1(c2ccccc2Cl)CCCCC1=O [S(+)-ketamine],no difference in locomotion,no difference in locomotion,–,30,significant increase in locomotion
